B1: hNoxa (20–38) (peptide, UniProt Q13794 20-38, looked up)
peptide: ELEVECATQLRRFGDKLNF
notes: Noxa, human, BH3 peptide, residues 20-38; also called BH3 peptide Noxa (20–38)

Key:
MCL1 173–329 = molecular target: T1, MCL1 173–329 (Homo sapiens, UniProt Q07820); assay: isothermal titration calorimetry; assay type: binding
T1 construct: residues 173-329 (no N-terminal region, no transmembrane domain), E. coli, 6xHis-Smt3 tag cleaved by Ulp-1, wild type

MBP-MCL1 = molecular target: T2, MBP-MCL1 (Homo sapiens, UniProt Q07820, K194A/K197A/R201A); assay: isothermal titration calorimetry; crystal structure […] Å (soak); assay type: binding
T2 construct: 6xHis-TEV tag cleaved, MBP kept; E. coli
T2 sequence (Q07820 173-321 K194A/K197A/R201A): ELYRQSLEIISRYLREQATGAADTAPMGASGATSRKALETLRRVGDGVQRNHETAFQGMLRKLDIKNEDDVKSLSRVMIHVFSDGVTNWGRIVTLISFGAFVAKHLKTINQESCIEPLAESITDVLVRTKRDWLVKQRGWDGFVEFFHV

MCL1 173–329 (human) = assay: ITC; hNoxa (20–38) (400 μM or 300 μM) titrated into 25 μM MCL1 173–329 or MBP-MCL1; autoITC200, 25°C, 25 mM Hepes pH 7.4, 100 mM NaCl, 0.1 mM TCEP, 4% DMSO; n ≥ 3, averaged KD
Chain of MCL1 173–329 (human) (Q07820 173-329): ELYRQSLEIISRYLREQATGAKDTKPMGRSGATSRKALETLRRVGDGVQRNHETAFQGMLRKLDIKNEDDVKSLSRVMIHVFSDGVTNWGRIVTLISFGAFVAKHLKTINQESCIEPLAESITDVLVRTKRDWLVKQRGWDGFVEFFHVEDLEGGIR

[1] = molecular target: T3, MBP-MCL1 (MBP, two-residue GS linker, MCL1 173–321 K194A/K197A/R201A) (human, UniProt Q07820 173-321, K194A | K197A | R201A); assay: as above; details: both partners purified
T3 construct: two-residue linker between MBP and MCL1; MCL1, human, residues 173-321 with three alanine mutations in the disordered loop; only the 6XHis-Tev part was removed with TEV protease; Six of the seven deposited PDB entries hold this construct and one holds MCL1 173–321 without MBP; also called MBP-MCL1 fusion construct; MBP-MCL1 fusion protein; source: E. coli (Top 10 or BL21 (DE3)), purified (Ni2+ …)
T3 sequence (Q07820 other isoform, or with tags, fused parts or gaps with the stated changes): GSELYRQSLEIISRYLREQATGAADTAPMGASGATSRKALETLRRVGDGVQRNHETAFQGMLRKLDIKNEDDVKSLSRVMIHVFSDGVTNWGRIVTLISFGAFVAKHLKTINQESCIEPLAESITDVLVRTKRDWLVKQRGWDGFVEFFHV

T1 sequence (Q07820 173-329): as the sequence (Q07820 173-329) above

Molecule	Kd (MCL1 173–329) [µM]	Kd (MBP-MCL1) [µM]	Kd (MCL1 173–329 (human)) [µM]	Kd [1] [µM]
O=C(O)c1sc2cc(F)ccc2c1Cl [compound 4, fragment 4]	97	93		
B1			0.16	0.19
